# Data published in ChEMBL document CHEMBL3875185, “Structure-anticonvulsant activity studies in the group of (E)-N-cinnamoyl aminoalkanols derivatives monosubstituted in phenyl ring with 4-Cl, 4-CH3 or 2-CH3” (Bioorg Med Chem, 2017).
# Activity calls are given as the source filed them. The rule behind the calls is not given here.
# Experiments:
# Mus musculus [1] = test: Anticonvulsant activity in maximal electroshock induced seizure mouse model assessed as suppression in hindlimb tonic extension at 300 mg/kg, ip measured at 0.5 hrs post dose; assay type: functional, organism-based
# Mus musculus [2] = test: Anticonvulsant activity in ip dosed 6-Hz induced seizure mouse model assessed as restoration of normal activity within 10 secs from stimulation by measuring time to peak effect at 32 mA; assay type: functional
# [3] = Protection index, ratio of TD50 for neurotoxicity in ip dosed mouse to ED50 for ip dosed maximal electroshock induced seizure mouse model; assay type: toxicity, organism-based; conditions: in vivo, read-out: Ratio TD50/ED50
# Rattus norvegicus [4] = test: Anticonvulsant activity in ip dosed pentylenetetrazole induced seizure Sprague-Dawley rat model assessed as no observable episode of clonic convulsion of at least 5 secs; assay type: functional
# [5] = Neurotoxicity in ip dosed Sprague-Dawley rat assessed as behavioral change; assay type: toxicity, organism-based; conditions: in vivo
# [6] = Protection index, ratio of TD50 for neurotoxicity in ip dosed Sprague-Dawley rat model to ED50 for ip dosed pentylenetetrazole induced seizure Sprague-Dawley rat model; assay type: toxicity, organism-based; conditions: in vivo, read-out: Ratio TD50/ED50
# [7] = biological target: T1, Adenosine receptor A3 (Homo sapiens) (UniProt P0DMS8); test: Displacement of [125I]AB-MECA from human recombinant adenosine receptor A3 expressed in HEK293 cells at 100 uM measured after 120 mins by scintillation counting method relative to control; assay type: cell-based
# T1 sequence (whole entry): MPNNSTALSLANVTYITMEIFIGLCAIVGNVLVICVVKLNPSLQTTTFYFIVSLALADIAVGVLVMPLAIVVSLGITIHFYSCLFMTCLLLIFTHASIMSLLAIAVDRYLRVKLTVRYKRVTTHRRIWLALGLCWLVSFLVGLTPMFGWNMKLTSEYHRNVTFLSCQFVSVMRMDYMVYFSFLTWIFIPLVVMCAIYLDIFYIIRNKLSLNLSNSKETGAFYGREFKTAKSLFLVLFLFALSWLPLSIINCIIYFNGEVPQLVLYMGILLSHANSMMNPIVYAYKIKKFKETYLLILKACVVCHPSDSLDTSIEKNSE
# [8] = biological target: Adrenergic receptor alpha-1 (Rattus norvegicus) (UniProt P15823+P23944+P43140); test: Displacement of [3H]prazosin from rat cerebral cortex alpha-1 adrenergic receptor at 100 uM measured after 60 mins by scintillation counting method relative to control
# [9] = biological target: Beta-2 adrenergic receptor (Homo sapiens) (UniProt P07550); test: Displacement of [3H]CGP 12177 from human recombinant beta2 adrenergic receptor expressed in CHO cells at 100 uM measured after 120 mins by scintillation counting method relative to control; assay type: cell-based
# [10] = biological target: D(1A) dopamine receptor (Homo sapiens) (UniProt P21728); test: Displacement of [3H]SCH 23390 from human recombinant dopamine D1 receptor expressed in CHO cells at 100 uM measured after 60 mins by scintillation counting method relative to control; assay type: cell-based
# [11] = biological target: T2, Endothelin receptor type B (Homo sapiens) (UniProt P24530); test: Displacement of [125I]endothelin-1 from human recombinant ETB receptor expressed in CHO cells at 100 uM measured after 120 mins by scintillation counting method relative to control; assay type: cell-based
# T2 sequence (whole entry): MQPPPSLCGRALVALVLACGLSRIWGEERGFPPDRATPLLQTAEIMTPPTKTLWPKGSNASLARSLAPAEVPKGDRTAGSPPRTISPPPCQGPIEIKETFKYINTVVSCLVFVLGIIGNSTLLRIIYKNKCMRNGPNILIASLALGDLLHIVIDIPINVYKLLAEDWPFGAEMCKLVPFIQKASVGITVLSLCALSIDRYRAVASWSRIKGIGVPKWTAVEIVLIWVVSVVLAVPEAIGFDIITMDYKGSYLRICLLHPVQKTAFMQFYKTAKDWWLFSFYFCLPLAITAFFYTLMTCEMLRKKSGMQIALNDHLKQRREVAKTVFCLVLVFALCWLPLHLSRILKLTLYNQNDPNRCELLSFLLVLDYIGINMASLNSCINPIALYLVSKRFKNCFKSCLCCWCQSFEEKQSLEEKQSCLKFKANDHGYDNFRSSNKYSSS
# [12] = biological target: Melanocortin receptor 4 (Homo sapiens) (UniProt P32245); test: Displacement of [125I]NDP-a-MSH from human recombinant MC4 receptor expressed in CHO cells at 100 uM measured after 120 mins by scintillation counting method relative to control; assay type: cell-based
# [13] = biological target: T3, Neuromedin-K receptor (Homo sapiens) (UniProt P29371); test: Displacement of [3H]SR 142801 from human recombinant NK3 receptor expressed in CHO cells at 100 uM measured after 120 mins by scintillation counting method relative to control; assay type: cell-based
# T3 sequence (whole entry): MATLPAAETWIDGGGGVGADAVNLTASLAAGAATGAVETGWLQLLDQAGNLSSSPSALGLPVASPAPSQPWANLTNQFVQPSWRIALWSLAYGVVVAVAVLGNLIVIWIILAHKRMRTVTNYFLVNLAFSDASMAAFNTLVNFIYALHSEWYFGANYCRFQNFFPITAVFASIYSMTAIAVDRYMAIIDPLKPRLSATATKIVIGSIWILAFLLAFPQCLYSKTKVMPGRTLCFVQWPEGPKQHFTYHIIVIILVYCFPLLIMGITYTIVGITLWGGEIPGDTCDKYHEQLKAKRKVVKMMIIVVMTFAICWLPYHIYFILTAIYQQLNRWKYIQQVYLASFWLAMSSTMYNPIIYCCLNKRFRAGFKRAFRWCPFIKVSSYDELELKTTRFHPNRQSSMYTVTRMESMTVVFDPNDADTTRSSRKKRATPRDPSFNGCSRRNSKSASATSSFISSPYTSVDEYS
# [14] = biological target: Delta-type opioid receptor (Homo sapiens) (UniProt P41143); test: Displacement of [3H]DADLE from human recombinant delta opioid receptor expressed in CHO cells at 100 uM measured after 120 mins by scintillation counting method relative to control; assay type: cell-based
# [15] = biological target: Mu-type opioid receptor (Homo sapiens) (UniProt P35372); test: Displacement of [3H]DAMGO from human recombinant mu-opioid receptor expressed in HEK293 cells at 100 uM measured after 120 mins by scintillation counting method relative to control; assay type: cell-based
# [16] = biological target: Nociceptin receptor (Homo sapiens) (UniProt P41146); test: Displacement of [3H]nociceptin from human recombinant NOP receptor expressed in HEK293 cells at 100 uM measured after 60 mins by scintillation counting method relative to control; assay type: cell-based
# [17] = biological target: 5-hydroxytryptamine receptor 1B (Rattus norvegicus) (UniProt P28564); test: Displacement of [125I]CYP from rat cerebral cortex 5HT1B receptor at 100 uM measured after 120 mins by scintillation counting method relative to control
# [18] = biological target: 5-hydroxytryptamine receptor 2A (Homo sapiens) (UniProt P28223); test: Displacement of [3H]ketanserin from human recombinant 5HT2A receptor expressed in HEK293 cells at 100 uM measured after 60 mins by scintillation counting method relative to control; assay type: cell-based
# Jurkat = test: Displacement of [3H]DTG from sigma receptor in human Jurkat cells at 100 uM measured after 120 mins by scintillation counting method relative to control; assay type: cell-based
# Rattus norvegicus [19] = species: Rattus norvegicus; test: Displacement of [35S]TBPS from rat cerebral cortex GABA-gated chloride channel at 100 uM measured after 60 mins by scintillation counting method relative to control
# Chain of Melanocortin receptor 4 (Homo sapiens) (P32245 whole entry): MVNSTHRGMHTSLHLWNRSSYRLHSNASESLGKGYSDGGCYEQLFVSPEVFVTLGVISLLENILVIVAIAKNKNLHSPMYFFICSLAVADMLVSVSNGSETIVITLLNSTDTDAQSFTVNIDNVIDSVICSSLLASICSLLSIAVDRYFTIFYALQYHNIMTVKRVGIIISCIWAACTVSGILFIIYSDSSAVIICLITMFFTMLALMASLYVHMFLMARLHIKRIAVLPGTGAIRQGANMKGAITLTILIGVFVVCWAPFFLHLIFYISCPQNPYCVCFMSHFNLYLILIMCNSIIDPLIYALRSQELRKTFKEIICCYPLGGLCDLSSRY
# Chain of Delta-type opioid receptor (Homo sapiens) (P41143 whole entry): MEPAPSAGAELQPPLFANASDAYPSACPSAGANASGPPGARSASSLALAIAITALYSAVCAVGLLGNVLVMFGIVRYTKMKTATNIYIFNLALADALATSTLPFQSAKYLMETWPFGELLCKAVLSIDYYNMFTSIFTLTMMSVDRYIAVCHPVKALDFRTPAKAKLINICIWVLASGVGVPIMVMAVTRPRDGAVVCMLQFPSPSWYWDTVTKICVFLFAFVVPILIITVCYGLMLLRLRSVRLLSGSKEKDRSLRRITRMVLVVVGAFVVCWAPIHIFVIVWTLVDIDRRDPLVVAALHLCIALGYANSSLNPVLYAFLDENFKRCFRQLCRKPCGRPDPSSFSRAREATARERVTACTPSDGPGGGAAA
# Chain of 5-hydroxytryptamine receptor 1B (Rattus norvegicus) (P28564 whole entry): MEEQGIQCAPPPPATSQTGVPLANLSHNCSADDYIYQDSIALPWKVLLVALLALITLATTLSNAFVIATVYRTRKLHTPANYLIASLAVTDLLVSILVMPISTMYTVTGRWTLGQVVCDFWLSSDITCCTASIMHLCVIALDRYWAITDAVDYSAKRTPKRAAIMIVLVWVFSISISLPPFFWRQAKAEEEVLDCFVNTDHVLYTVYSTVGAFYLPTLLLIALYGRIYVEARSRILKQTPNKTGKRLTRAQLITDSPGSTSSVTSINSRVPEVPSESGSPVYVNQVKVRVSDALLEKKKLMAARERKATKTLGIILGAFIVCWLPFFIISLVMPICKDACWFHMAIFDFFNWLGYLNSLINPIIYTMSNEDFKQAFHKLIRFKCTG
# Chain of 5-hydroxytryptamine receptor 2A (Homo sapiens) (P28223 whole entry): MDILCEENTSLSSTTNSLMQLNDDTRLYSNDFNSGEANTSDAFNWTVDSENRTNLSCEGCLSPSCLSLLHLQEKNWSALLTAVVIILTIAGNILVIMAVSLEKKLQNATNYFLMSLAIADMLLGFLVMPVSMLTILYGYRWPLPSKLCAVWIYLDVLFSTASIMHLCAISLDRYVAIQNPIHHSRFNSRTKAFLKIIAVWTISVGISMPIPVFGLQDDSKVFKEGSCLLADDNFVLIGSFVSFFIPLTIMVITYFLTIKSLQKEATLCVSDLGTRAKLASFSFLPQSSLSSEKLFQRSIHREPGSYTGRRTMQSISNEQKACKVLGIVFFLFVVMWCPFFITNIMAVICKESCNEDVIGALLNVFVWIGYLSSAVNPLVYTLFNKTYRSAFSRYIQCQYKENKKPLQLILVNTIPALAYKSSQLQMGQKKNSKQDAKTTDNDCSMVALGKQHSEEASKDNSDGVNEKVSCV
# Chain of Mu-type opioid receptor (Homo sapiens) (P35372 whole entry): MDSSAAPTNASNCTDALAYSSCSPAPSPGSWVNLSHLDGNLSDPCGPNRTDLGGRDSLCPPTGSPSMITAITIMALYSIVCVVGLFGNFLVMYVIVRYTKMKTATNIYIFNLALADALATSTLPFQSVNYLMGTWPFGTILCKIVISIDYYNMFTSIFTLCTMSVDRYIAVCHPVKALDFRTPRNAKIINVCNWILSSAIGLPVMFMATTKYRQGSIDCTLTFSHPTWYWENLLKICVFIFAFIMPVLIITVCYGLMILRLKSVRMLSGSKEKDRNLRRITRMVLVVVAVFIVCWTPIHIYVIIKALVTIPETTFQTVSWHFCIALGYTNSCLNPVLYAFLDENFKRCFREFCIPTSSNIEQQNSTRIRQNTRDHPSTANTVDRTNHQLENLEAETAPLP
# Chain of Nociceptin receptor (Homo sapiens) (P41146 whole entry): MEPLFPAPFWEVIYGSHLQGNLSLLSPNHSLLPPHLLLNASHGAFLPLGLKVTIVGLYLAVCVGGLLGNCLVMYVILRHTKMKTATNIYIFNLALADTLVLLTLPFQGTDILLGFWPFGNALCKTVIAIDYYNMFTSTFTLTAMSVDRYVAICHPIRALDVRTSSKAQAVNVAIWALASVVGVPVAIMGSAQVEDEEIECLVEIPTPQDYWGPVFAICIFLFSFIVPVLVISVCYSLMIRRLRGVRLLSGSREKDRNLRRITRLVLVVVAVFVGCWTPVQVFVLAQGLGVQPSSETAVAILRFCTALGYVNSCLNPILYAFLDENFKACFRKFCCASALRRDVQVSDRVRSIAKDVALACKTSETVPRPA
# Chain of Beta-2 adrenergic receptor (Homo sapiens) (P07550 whole entry, looked up): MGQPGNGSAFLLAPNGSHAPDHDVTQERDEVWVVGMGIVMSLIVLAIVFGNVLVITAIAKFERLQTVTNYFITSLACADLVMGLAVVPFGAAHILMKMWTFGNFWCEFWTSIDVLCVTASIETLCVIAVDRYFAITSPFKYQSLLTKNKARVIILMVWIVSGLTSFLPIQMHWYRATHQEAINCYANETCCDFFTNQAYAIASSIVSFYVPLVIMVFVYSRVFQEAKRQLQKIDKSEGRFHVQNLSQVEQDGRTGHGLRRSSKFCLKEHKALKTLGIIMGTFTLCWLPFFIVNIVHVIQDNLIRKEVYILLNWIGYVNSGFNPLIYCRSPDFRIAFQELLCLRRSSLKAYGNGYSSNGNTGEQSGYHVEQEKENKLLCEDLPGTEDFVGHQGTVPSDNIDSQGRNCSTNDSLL
# Chain of D(1A) dopamine receptor (Homo sapiens) (P21728 whole entry): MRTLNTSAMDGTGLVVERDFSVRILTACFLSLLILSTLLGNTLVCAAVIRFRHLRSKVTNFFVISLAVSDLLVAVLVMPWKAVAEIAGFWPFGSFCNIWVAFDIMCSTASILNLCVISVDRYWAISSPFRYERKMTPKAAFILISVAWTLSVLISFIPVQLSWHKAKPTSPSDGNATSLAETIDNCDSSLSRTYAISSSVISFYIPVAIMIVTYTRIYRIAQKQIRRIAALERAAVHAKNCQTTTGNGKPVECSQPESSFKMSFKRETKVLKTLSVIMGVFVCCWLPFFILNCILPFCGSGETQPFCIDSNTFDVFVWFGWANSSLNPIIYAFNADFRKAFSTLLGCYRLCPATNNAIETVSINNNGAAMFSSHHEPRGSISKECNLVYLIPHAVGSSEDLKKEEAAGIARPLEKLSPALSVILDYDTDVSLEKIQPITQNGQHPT
Compound,Activity (Mus musculus [1]),Time (Mus musculus [2]),selectivity ratio [3],ED50 (Rattus norvegicus [4]),TD50 [5],selectivity ratio [6],inhibition [7],inhibition [8],inhibition [9],inhibition [10],inhibition [11],inhibition [12],inhibition [13],inhibition [14],inhibition [15],inhibition [16],inhibition [17],inhibition [18],inhibition (Jurkat),inhibition (Rattus norvegicus [19])
Cc1ccccc1/C=C/C(=O)N[C@@H](C)CO,Active,0.25 h,3.53,24.6 mg/kg,103 mg/kg,4.18,17.1%,11.5%,-8%,7.2%,-8.2%,7.9%,-0.4%,3%,0.4%,2.2%,32.4%,10.3%,-3.5%,17.7%
CC(O)CNC(=O)/C=C/c1ccc(Cl)cc1 (stereo not given),Active,0.5 h,3.24,56 mg/kg,69.8 mg/kg,1.25,29.9%,17.3%,-9%,14.9%,-4.6%,0.9%,5.2%,3.2%,11.3%,1.7%,-3.2%,12.2%,22.9%,22.6%
CCC(CO)NC(=O)/C=C/c1ccc(Cl)cc1 (stereo not given),Active,0.25 h,3.65,64.4 mg/kg,79.5 mg/kg,1.23,52.5%,9.9%,2.1%,18.5%,-10%,-3.1%,5.8%,6%,23.3%,-4.4%,-1.5%,19.3%,25.4%,37.2%
